These results are taken from patent publication US20240067617A1 (Albireo AB, priority 2022, published 2024).

The target in data set [1] is T1, hIBAT (Homo sapiens, UniProt Q12908).
T1 construct: expressed in transfected cells; kept under Puromycin selection
T1 sequence (Q12908 1-348): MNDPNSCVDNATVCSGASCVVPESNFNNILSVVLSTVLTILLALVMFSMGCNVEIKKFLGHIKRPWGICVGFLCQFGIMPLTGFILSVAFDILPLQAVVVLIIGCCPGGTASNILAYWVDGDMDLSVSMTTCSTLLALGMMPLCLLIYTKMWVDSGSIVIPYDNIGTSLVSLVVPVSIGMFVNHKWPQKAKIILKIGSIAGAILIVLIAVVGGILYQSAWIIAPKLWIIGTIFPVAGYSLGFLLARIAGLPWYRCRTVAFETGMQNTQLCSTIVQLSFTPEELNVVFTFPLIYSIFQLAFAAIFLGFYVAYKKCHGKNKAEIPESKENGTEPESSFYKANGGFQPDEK
As to the kind of experiment: IBAT (h/m) assay: 3H-taurocholic acid uptake in human IBAT-overexpressing cells. Type of data set: cell-based. The settings on record: 0.25 μM 3H-taurocholic acid + 5 μM cold taurocholic acid, 20 minutes at 37° C., highest test concentration 10 μM. The gist of the method: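 Human or mouse IBAT-overexpressing cells cultured 48 h, then exposed for 20 min at 37 °C to compounds (top 10 μM, 3-fold, 10 points; 0.2% DMSO) with 0.25 μM 3H-taurocholic acid plus 5 μM cold taurocholic acid. Uptake stopped on ice, cells washed with cold 1 mM taurocholic acid, radioactivity counted by scintillation.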

A short description of data set [2]: Bidirectional permeability assay (Caco-2 cells). Type of data set: in vitro ADME. The following applies: human, 10 μM in FaSSIF buffer, 120 minutes at 37° C.; for Papp A→B at 120 min, 10 µM: absorptive direction (A2B); for Papp B→A at 120 min, 10 µM: secretory direction (B2A). Here is the method: Bidirectional Permeability Assay (Caco-2 Cells)
Caco-2 cells (Evotec) were seeded at a density of 70,000 cells/well in Millicell© 24-well cell culture insert plates and maintained in an incubator (37° C., 5% CO2, 95% RH) for 21 days with media change on alternate days.
Stock solutions (10 mM) of the test compounds, atenolol (low permeability marker), propranolol (high permeability marker) and digoxin (substrate for P-gp transport pathway) were prepared in dimethylsulfoxide (DMSO). An intermediate stock solution (1 mM) was prepared by diluting 10 μL of 10 mM master stock solution with 90 μL of neat DMSO. A working stock solution (10 μM) was prepared by diluting 50 μL of 1 mM with 4950 μL of FaSSIF buffer. Post addition of compounds to the FaSSIF, samples were subjected to sonication for 2 hours, and centrifuged at 4000 RPM for 30 minutes at 37° C. The 4 mL of resultant supernatant was directly used in the assay. The final DMSO concentration in the transport experiments was 1%.
On the day of assay, Caco-2 monolayers were washed twice with transport buffer (HBSS, pH 7.4) and pre-incubated for 30 min (37° C., 5% CO2, 95% RH) in an incubator. The electrical resistance of the monolayers was measured with a Millicell®-ERS system. Monolayers with trans-epithelial electrical resistance (TEER) values greater than 350 ohm·cm^2 were selected for the assay.
The assay was conducted in absorptive direction (A2B) and secretory (B2A) directions. Transport experiments were initiated by addition of transport assay buffer (FaSSIF buffer prepared in HBSS) consisting of compounds to the donor compartment (apical chamber A-B; basolateral chamber B-A) in duplicate (n=2) wells. Drug free HBSS buffer (pH 7.4) containing 1% bovine serum albumin (BSA) was introduced to the receiver (A-B-basolateral; B-A-Apical) compartments. The volumes of apical and basolateral compartments were 0.4 and 0.8 mL, respectively. After adding dosing solution, plates were incubated in an incubator for 120 minutes at 37° C. After 120 minutes, donor and receiver samples were collected and matrix matched (1:1, 30 μL study sample+30 μL blank buffer) with the opposite buffer. Dosing samples matrix matched (1:1, 30 μL study sample+30 μL blank buffer) with the opposite buffer. Samples were processed by adding acetonitrile containing internal standard (60 μL study sample+200 μL acetonitrile containing internal standard—Tolbutamide, 500 ng/mL). Samples were vortexed and centrifuged at 4000 rpm for 10 minutes. The obtained supernatant (100 μL) was diluted with 100 μL of water and transferred to fresh 96 well plates. The concentration of compounds in the samples was analyzed by liquid chromatography tandem mass spectrometry (LC-MS/MS) method using discovery grade bio-analytical method, as applicable.
The mean apparent permeability (Papp,×10^−6 cm/sec) of the test compounds, atenolol, propranolol and digoxin were calculated as follows:
where dq/dt=rate of transport (rate of transport of compound in the receiver compartment), C0=initial concentration in the donor compartment, A=surface area of the effective filter membrane.

For `CCCCC1(CC)CN(c2ccccc2)c2cc(SC)c(CSCC(=O)O)cc2S(=O)(=O)C1` (single isomer, unassigned) [2, enantiomer 1], in data set [1], the IC50 is 0.2 nM. In data set [2], this molecule came in with a Papp A→B at 120 min, 10 µM of 7.5 ×10⁻⁶ cm/s and an apparent permeability from basolateral to apical (Papp B→A) at 120 min, 10 µM of 9.3 ×10⁻⁶ cm/s.
Take `CCCCC1(C)CN(c2ccccc2)c2cc(SC)c(CSCC(=O)O)cc2S(=O)(=O)C1` (single isomer, unassigned) [5, enantiomer 1]: in data set [1], the IC50 amounted to 0.7 nM. Besides, in data set [2], the apical-to-basolateral permeability (Papp A→B) at 120 min, 10 µM came out at 29.3 ×10⁻⁶ cm/s and the apparent permeability from basolateral to apical (Papp B→A) at 120 min, 10 µM is 25.3 ×10⁻⁶ cm/s.
For `CCCCC1(CC)CN(c2ccc(F)cc2)c2cc(SC)c(CSCC(=O)O)cc2S(=O)(=O)C1` (single isomer, unassigned) [7, enantiomer 1], the concentration for half-maximal inhibition (IC50) in data set [1] was 0.4 nM. Also, in data set [2], the Papp A→B at 120 min, 10 µM is 24.3 ×10⁻⁶ cm/s and the basolateral-to-apical permeability (Papp B→A) at 120 min, 10 µM stood at 21.3 ×10⁻⁶ cm/s.

For orientation: IC50 means the concentration needed to halve the response being measured. One may read the Papp A→B as the apparent permeability from the apical to the basolateral side of a cell layer. Low values mean poor permeation, high ones ready permeation. For orientation: Papp B→A means how fast a substance crosses the layer from the basolateral side.
